The results in this text go back to US20110038885A1, “CHEMOKINE ANALOGS” (priority 2007, published 2011).

The test system of one test is IL-8. The test can be described thus: In vitro chemotaxis, inhibition v IL-8. Type of test: cell-based, human. Further details: concentration or dose not given beside the values. As for the experimental part: To determine whether an agent inhibits a chemokine-induced activity, such as macrophage recruitment, varying amounts of the agent are mixed with cells in the presence of a known chemoattractant. For example, a range of known concentrations of an agent, e.g., a chemokine peptide, is incubated with a defined number (e.g., 10^4-10^6) of human THP-1 monocyte cells in individual wells of the top compartment of a trans-well plate. Chemokine, at a concentration known to cause significant migration of THP-1 cells in the trans-well migration assay, is placed in the lower compartment of a trans-well plate. Cells are then incubated at 37° C. for a period sufficient to allow migration, e.g., 4 hours. After incubation, the cells are gently removed from the top of the filter with a pipette, 20 μl of 20 mM EDTA in simple PBS is added into each top well, and incubated for 20 minutes at 4° C. The filter is carefully flushed with media using a gentle flow, and removed. A standard curve consisting of a two-fold dilution series of THP-1 cells (in 29 μl) is placed to accurately quantify the number of cells that have migrated. Migrated cells are stained with 3 μl of MTT stock dye solution which is added directly into each well (5 mg/ml in RPMI-1640 without phenol red) (Sigma Chemical Co., St. Louis, Mo., USA) and incubated at 37° C. for 4 hours. The media is carefully aspirated from each well, and the converted dye is solubilized by 20 μl of DMSO. Absorbance of converted dye is measured at a wavelength of 595 nm using an ELISA plate reader. The number of migrated cells in each well is then determined by interpolation of the standard curve (see also Imai et al., J. Biol. Chem., 272:15036, 1997). Any method suitable for counting cells can be used, for example, counting with a hemocytometer, incubation of the cells with MTT (see above), or FACS analysis. A negative control assay is also performed, using TGFβ or another non-chemokine chemoattractant (e.g., IL1β or TNFα). To assess whether the agent is cytotoxic, the same concentrations of agent are incubated with THP-1 cells. Agents which 1) are not cytotoxic at levels which inhibit migration, 2) are ineffective at inhibiting the negative control-induced migration, and 3) reduce or inhibit chemokine-induced THP-1 migration, are agents which fall within the scope of the invention.

A further test concerns MCP-1. The test is described as follows: In vitro chemotaxis (trans-well migration) v MCP-1. Type of test: cell-based, human. The method in brief: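 Human THP-1 monocytes (10^4-10^6) with agent at varying concentrations in upper trans-well chamber; IL-8 or MCP-1 in lower chamber at a migration-inducing concentration, 37° C for e.g. 4 hours. Migrated cells quantified by MTT (595 nm) against a THP-1 standard curve; cytotoxicity and non-chemokine chemoattractant controls run.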

SMILES strings stand for the structures. Bridge positions count the residues as written; N and C are the ends. Square brackets hold non-standard residues; d marks the D form. Peptide text beside a SMILES is read from it. * marks the point of attachment. Ac6c = NC1(C(=O)O)CCCCC1; Octanoyl = CCCCCCCC(=O)*; dDap = NC[C@@H](N)C(=O)O; Dap = NC[C@H](N)C(=O)O; GABA = NCCCC(=O)O; X2 = CCCCCCO*

`CC[C@@H](C)[C@H]1NC(=O)[C@@H](CCC(N)=O)NC(=O)[C@H](N)CSSC[C@H](C(=O)NCCCC(=O)O)NC(=O)[C@@H](CC(C)C)NC(=O)[C@@H](CC(=O)O)NC(=O)[C@H]2CCCN2C(=O)[C@@H](CCCCN)NC(=O)[C@@H](CCC(N)=O)NC(=O)[C@@H](CCCCN)NC(=O)[C@@H](Cc2c[nH]c3ccccc23)NC1=O` [Example 142, c(D-Cys-D-Gln-D-Ile-D-Trp-D-Lys-D-Gln-D-Lys-D-Pro-D-Asp-D-Leu-D-Cys)-Gaba-OH] (H-[dC][dQ][dI][dW][dK][dQ][dK][dP][dD][dL][dC][GABA]-OH; disulfide 1-11): the “v IL-8 inhibition (%)” value in the test on IL-8 came to 107.3%. Besides, in the test on MCP-1, the 50% effective concentration (EC50) – broadly, the concentration needed to bring the measured effect to its halfway point – is 20 nM.
For `CC[C@H](C)[C@@H]1NC(=O)[C@H](Cc2c[nH]c3ccccc23)NC(=O)[C@H](CCCCN)NC(=O)[C@H](CCC(N)=O)NC(=O)[C@H](CCCCN)NC(=O)[C@@H]2CCCN2C(=O)[C@H](CC(=O)O)NC(=O)[C@H](CC(C)C)NC(=O)[C@@H](NC(C)=O)CSSC[C@@H](C(=O)N[C@H](CN)C(N)=O)NC(=O)[C@H](CCC(N)=O)NC1=O` [Example 16, Ac-c(Cys-Leu-Asp-Pro-Lys-Gln-Lys-Trp-Ile-Gln-Cys)-D-Dap-NH2] (Ac-CLDPKQKWIQC[dDap]-NH2; disulfide 1-11), in that order: 19.8% and 800 nM.
For `CC[C@H](C)[C@@H]1NC(=O)[C@@H](NC(=O)[C@H](Cc2c[nH]c3ccccc23)NC(=O)[C@@H](N)CCCCN)CSSC[C@@H](C(N)=O)NC(=O)[C@H](CCC(N)=O)NC1=O` [Example 15, Lys-Trp-c(Cys-Ile-Gln-Cys)-NH2] (H-KWCIQC-NH2; disulfide 3-6), in that order: 10.5% and 3000 nM.
On the same counts, the results for `CC[C@H](C)[C@@H]1NC(=O)[C@@H](NC(=O)[C@H](Cc2c[nH]c3ccccc23)NC(=O)[C@H](CCCCN)NC(=O)[C@H](CCC(N)=O)NC(=O)[C@H](CCCCN)NC(=O)[C@@H]2CCCN2C(=O)[C@H](CC(=O)O)NC(=O)[C@@H](N)CC(C)C)CSSC[C@@H](C(N)=O)NC(=O)[C@H](CCC(N)=O)NC1=O` [Example 14, Leu-Asp-Pro-Lys-Gln-Lys-Trp-c(Cys-Ile-Gln-Cys)-NH2] (H-LDPKQKWCIQC-NH2; disulfide 8-11) are 10.5% and 2000 nM.
`CC[C@H](C)[C@@H]1NC(=O)[C@H](Cc2c[nH]c3ccccc23)NC(=O)[C@H](CCCCN)NC(=O)[C@H](CCC(N)=O)NC(=O)[C@H](CCCCN)NC(=O)[C@@H]2CCCN2C(=O)[C@H](CC(=O)O)NC(=O)[C@H](CC(C)C)NC(=O)[C@@H](NC(=O)[C@@H](CC(=O)O)NC(=O)[C@H](N)CCCCN)CSSC[C@@H](C(N)=O)NC(=O)[C@H](CCC(N)=O)NC1=O` [Example 167, D-Lys-D-Asp-c(Cys-Leu-Asp-Pro-Lys-Gln-Lys-Trp-Ile-Gln-Cys)-NH2] (H-[dK][dD]CLDPKQKWIQC-NH2; disulfide 3-13): in the test with IL-8, the “v IL-8 inhibition (%)” value came to 99.6%. The molecule further returned a concentration for a half-maximal effect (EC50) in the test with MCP-1 of 25 nM.
As to `CC[C@H](C)[C@@H]1NC(=O)[C@H](Cc2c[nH]c3ccccc23)NC(=O)[C@H](CCCCN)NC(=O)[C@H](CCC(N)=O)NC(=O)[C@@H](N)CSSC[C@@H](C(N)=O)NC(=O)[C@H](CCC(N)=O)NC1=O` [Example 50, c(Cys-Gln-Lys-Trp-Ile-Gln-Cys)-NH2] (H-CQKWIQC-NH2; disulfide 1-7), the “v IL-8 inhibition (%)” value in the test on IL-8 worked out at 104.8%. In addition, the 50% effective concentration (EC50) with MCP-1 is 25 nM.
For `CC[C@H](C)[C@@H]1NC(=O)[C@H](Cc2c[nH]c3ccccc23)NC(=O)[C@H](CCCCN)NC(=O)[C@H](CCC(N)=O)NC(=O)[C@@H](NC(=O)[C@H](CCCCN)NC(=O)[C@@H]2CCCN2)CSSC[C@@H](C(N)=O)NC(=O)[C@H](CCC(N)=O)NC1=O` [Example 44, Pro-Lys-c(Cys-Gln-Lys-Trp-Ile-Gln-Cys)-NH2] (H-PKCQKWIQC-NH2; disulfide 3-9), in that order: 12.9% and 1000 nM.
On the same counts, the results for `CC[C@H](C)[C@@H]1NC(=O)[C@H](Cc2c[nH]c3ccccc23)NC(=O)[C@H](CCCCN)NC(=O)[C@H](CCC(N)=O)NC(=O)[C@H](CCCCN)NC(=O)[C@@H]2CCCN2C(=O)[C@H](CC(=O)O)NC(=O)[C@H](CC(C)C)NC(=O)[C@@H](N)CSSC[C@H](C(N)=O)NC(=O)[C@H](CCC(N)=O)NC1=O` [Example 36, c(Cys-Leu-Asp-Pro-Lys-Gln-Lys-Trp-Ile-Gln-D-Cys)-NH2] (H-CLDPKQKWIQ[dC]-NH2; disulfide 1-11) are 21.8% and 600 nM.
On the same counts, the results for `CC[C@H](C)[C@@H]1NC(=O)[C@H](Cc2c[nH]c3ccccc23)NC(=O)[C@H](CCCCN)NC(=O)[C@@H](NC(=O)[C@H](CCC(N)=O)NC(=O)[C@H](CCCCN)NC(=O)[C@@H]2CCCN2C(=O)[C@H](CC(=O)O)NC(=O)[C@@H](N)CC(C)C)CSSC[C@@H](C(N)=O)NC(=O)[C@H](CCC(N)=O)NC1=O` [Example 12, Leu-Asp-Pro-Lys-Gln-c(Cys-Lys-Trp-Ile-Gln-Cys)-NH2] (H-LDPKQCKWIQC-NH2; disulfide 6-11) are 94.8% and 50 nM.
Consider `CC[C@H](C)[C@@H]1NC(=O)[C@H](Cc2c[nH]c3ccccc23)NC(=O)[C@H](CCCCN)NC(=O)[C@H](CCC(N)=O)NC(=O)[C@H](CCCCN)NC(=O)[C@@H]2CCCN2C(=O)[C@H](CC(=O)O)NC(=O)[C@@H](N)CSSC[C@@H](C(N)=O)NC(=O)[C@H](CCC(N)=O)NC1=O` [Example 42, c(Cys-Asp-Pro-Lys-Gln-Lys-Trp-Ile-Gln-Cys)-NH2] (H-CDPKQKWIQC-NH2; disulfide 1-10), for which the “v IL-8 inhibition (%)” value in the test with IL-8 worked out at 94.4%. The same molecule had an EC50 in the test on MCP-1 of 25 nM.
With `CCCCCCCC(=O)N[C@@H](CN)C(=O)N[C@@H]1CSSC[C@H](C(N)=O)NC(=O)[C@@H](CC(C)C)NC(=O)[C@@H](CC(=O)O)NC(=O)[C@H]2CCCN2C(=O)[C@@H](CCCCN)NC(=O)[C@@H](CCC(N)=O)NC(=O)[C@@H](CCCCN)NC(=O)[C@@H](Cc2c[nH]c3ccccc23)NC(=O)[C@@H]([C@H](C)CC)NC(=O)[C@@H](CCC(N)=O)NC1=O` [Example 160, Octanoyl-Dap-c(D-Cys-D-Gln-D-Ile-D-Trp-D-Lys-D-Gln-D-Lys-D-Pro-D-Asp-D-Leu-D-Cys)-NH2] (Octanoyl-[Dap][dC][dQ][dI][dW][dK][dQ][dK][dP][dD][dL][dC]-NH2; disulfide 2-12), the “v IL-8 inhibition (%)” value in the test on IL-8 came out at 100.2%. The same molecule showed an EC50 in the test with MCP-1 of 25 nM.
On the same counts, the results for `CC(=O)N[C@H]1CSSC[C@@H](C(N)=O)NC(=O)[C@H](CCC(N)=O)NC(=O)C2(CCCCC2)NC(=O)[C@H](Cc2c[nH]c3ccccc23)NC(=O)[C@H](CCCCN)NC(=O)[C@H](CCC(N)=O)NC(=O)[C@H](CCCCN)NC(=O)[C@@H]2CCCN2C(=O)[C@H](CC(=O)O)NC(=O)[C@H](CC(C)C)NC1=O` [Example 155, Ac-c(Cys-Leu-Asp-Pro-Lys-Gln-Lys-Trp-A6c-Gln-Cys)-NH2] (Ac-CLDPKQKW[Ac6c]QC-NH2; disulfide 1-11) are −1.5% and above 1000 nM.
For `CCCCCCOC(=O)C[C@H]1NC(=O)[C@H]2CCCN2C(=O)[C@@H](CCCCN)NC(=O)[C@@H](CCC(N)=O)NC(=O)[C@@H](CCCCN)NC(=O)[C@@H](Cc2c[nH]c3ccccc23)NC(=O)[C@@H]([C@H](C)CC)NC(=O)[C@@H](CCC(N)=O)NC(=O)[C@H](N)CSSC[C@H](C(N)=O)NC(=O)[C@@H](CC(C)C)NC1=O` [Example 161, c(D-Cys-D-Gln-D-Ile-D-Trp-D-Lys-D-Gln-D-Lys-D-Pro-D-Asp(1-hexanol)-D-Leu-D-Cys)-NH2] (H-[dC][dQ][dI][dW][dK][dQ][dK][dP][dD](X2)[dL][dC]-NH2; disulfide 1-11), in that order: 99.8% and 8 nM.
For `CCCCCCCC(=O)NCCCC[C@@H]1NC(=O)[C@@H](CC(C)C)NC(=O)[C@@H](CC(=O)O)NC(=O)[C@H]2CCCN2C(=O)[C@@H](CCCCN)NC(=O)[C@@H](CCC(N)=O)NC(=O)[C@@H](CCCCN)NC(=O)[C@@H](Cc2c[nH]c3ccccc23)NC(=O)[C@@H]([C@H](C)CC)NC(=O)[C@@H](CCC(N)=O)NC(=O)[C@H](N)CSSC[C@H](C(N)=O)NC1=O` [Example 153, c(D-Cys-D-Gln-D-Ile-D-Trp-D-Lys-D-Gln-D-Lys-D-Pro-D-Asp-D-Leu-Lys(Nε-octanoyl)-D-Cys)-NH2] (H-[dC][dQ][dI][dW][dK][dQ][dK][dP][dD][dL]K(Octanoyl)[dC]-NH2; disulfide 1-12), in that order: 4.1% and above 1000 nM.
